Measurements published in patent publication US20080119412A1, “Polypeptides for Modulating Binding of Trp Channel Proteins and Trp- Associated Proteins” (NoNO Inc., priority 2003, published 2008).
Residues, ends and D or L forms follow the SMILES beside them. *: point of attachment. Biotin = O=C1N[C@H]2[C@H](CS[C@H]2CCCCC(=O)*)N1

Target: T1, Mint1 d2 (Homo sapiens, UniProt Q02410)
T1 construct: made in house; host or cells: E. coli (DH5alpha, BL21 or JM109)
T1 sequence (Q02410 with tags, fused parts or gaps): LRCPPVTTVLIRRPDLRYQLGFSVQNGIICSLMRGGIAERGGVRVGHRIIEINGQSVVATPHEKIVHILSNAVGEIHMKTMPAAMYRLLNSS
Assay: G3 assay titration, GST-PDZ fusion / biotinylated peptide
Type: binding
Procedure: The G3 assay is identical to the G0 assay with the following exceptions. The peptides are typically present at 0.1 μM rather than 20 μM. The peptides are also pre-incubated with the HRP-streptavidin prior to adding to the assay plate. In the G0 assay, free peptide is incubated with the PDZ proteins prior to the addition of the HRP-streptavidin. Thus, for the G0 assay one can lose signal if the bound peptide dissociates from the PDZ protein prior to the addition of the HRP-streptavidin. In the G3 modified assay the HRP-streptavidin/peptide complex is added to the plate in one step, thus increasing the likelihood that all the bound peptide will be bound to HRP-streptavidin. The G3 modified assay increases the chance of observing weak interactions.
This example describes assays to identify binding between TRPM7 and PDZ domains. GST-PDZ fusions are produced that each contain an entire PDZ domain (or multiple PDZ domains), the collection encompassing approximately 90% of all PDZ domains identified in the human genome. (See Table 5 and Section V (PDZ Proteins and PL Protein Interactions Disclosure). Biotinylated peptide corresponding to 11 residues of Tat coupled to the C-terminal 9 amino acids of TRPM7 ([…]; SEQ ID NO:258) is synthesized and purified by HPLC.
• Nunc MaxiSorp 96 well Immuno-plate, Nunc • PBS pH 7.4 (phosphate buffered saline, 8 g NaCl, 0.29 g KCl, 1.44 g Na2HPO4, 0.24 g KH2PO4, add H2O to 1 liter and pH 7.4; 0.2 μm filter) • Assay Buffer: 2% BSA in PBS (20 g of bovine serum albumin per liter PBS, fraction V, ICN Biomedicals, cat#IC15142983 • Goat anti-GST polyclonal Ab, stock 5 mg/ml, stored at 4° C., Amersham Pharmacia cat#27-4577-01 • Dilute 1:1000 in PBS, final concentration 5 μg/ml. • HRP-Streptavidin, 2.5 mg/2 ml stock stored at 4° C., Zymed cat#43-4323, dilute 1:2000 into Assay buffer, final concentration of […] • Wash Buffer, PBS • Biotinylated peptides (HPLC purified, stock solution stored in −20° C. freezer) • GST-PRISM proteins (stock stored at −80° C., after 1st thaw store in −10° C. freezer) • TMB (3,3′,5,5′, teramethylbensidine), tablets, Sigma cat.#T5525 • Per plate, dissolve 1 tablet in 1 ml DMSO, add 9 ml Citrate/Phosphate buffer pH 5.4 and 2 μL H2O2 • 0.1 M H2SO4, Sigma cat.#S1526 • 12-w multichannel pipettor & tips • 50 ml reagent reservoirs, Costar#4870 • 50, 15 ml polypropylene conical tubes • Costar Transtar 96 Costar #7605 • Transtar 96 Cartridge Costar #7610 • Molecular Devices microplate reader (450 & 650 nm filters) with SoftMax Pro software *When using reagents stored at or 4° C. or −20° C., remove & keep on ice
• 1. Coat plate with 100 μl of 5 μg/ml anti-GST, overnight at 4° C. • 2. Dump contents of plate & out tap dry on paper towels • 3. Block with 200 μl Assay Buffer for 2 hrs at room temperature • 4. Prepare proteins at 5 μg/ml in Assay Buffer • 5. Wash 3× with cold PBS (4° C.), avoiding letting the plates dry out • 6. Add proteins at 50 μl per well, incubate 1 to 2 hrs at 4° C. • 7. Prepare peptides to desired concentration in Assay Buffer • 8. Wash 3× with cold PBS (4° C.), avoiding letting the plates dry out • 9. Add HRP-Streptavidin/peptide complex [prepared by incubating for 20 minutes at room temperature HRP-Streptavidin (1:2000) with the desired biotin-peptide concentration for 20 minutes at room temperature] at 50 μl per well on ice • 10. Place at room temperature for exactly 30 minutes • 11. Promptly wash 5× with PBS at room temperature • 12. Add 100 μl/well TMB substrate (write time on plate) • 13. Incubate in dark at room temperature for a maximum of 30 minutes • 14. Read plate at 25 minutes (650 nm), optional • 15. Stop reaction with 100 μl of 0.18 M H2SO4, 30 minutes after adding TMB • Take last reading at 450 nm soon after stopping reaction
The G3 assay was performed on a subset of the PDZ domains as in Example II except that the concentration of peptide was 0.002 μM, […], 0.1 μM, 0.2 μM, 1 μM, and 2 μM. Data was fitted to the equation: […]

In the case of CSCC[C@H](NC(=O)[C@H](CC(C)C)NC(=O)[C@H](CCCNC(=N)N)NC(=O)[C@@H](NC(=O)[C@H](CO)NC(=O)[C@H](CC(N)=O)NC(=O)[C@@H](NC(=O)[C@H](CO)NC(=O)[C@H](CCCNC(=N)N)NC(=O)[C@H](CCCNC(=N)N)NC(=O)[C@H](CCCNC(=N)N)NC(=O)[C@H](CCC(N)=O)NC(=O)[C@H](CCCNC(=N)N)NC(=O)[C@H](CCCNC(=N)N)NC(=O)[C@H](CCCCN)NC(=O)[C@H](CCCCN)NC(=O)[C@H](CCCNC(=N)N)NC(=O)CNC(=O)[C@H](Cc1ccc(O)cc1)NC(=O)CCCC[C@@H]1SC[C@@H]2NC(=O)N[C@@H]21)[C@@H](C)O)C(C)C)C(=O)N[C@@H](CC(C)C)C(=O)O [Tat-TRPM7 peptide] (Biotin-YGRKKRRQRRRSTNSVRLML-OH), the EC50 is reported as < 2000 nM.
